Assay results from PubChem BioAssay (NCI).
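In this assay, cells in 96-well plates receive the compound at five concentrations for 48 hours. Endpoints are linearly interpolated between the surrounding concentrations. TGI marks complete inhibition of growth.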

Assays:
Assay in all cases: growth of human tumour cells (NCI), 48 h
786-0 renal = test system: 786-0 renal
ACHN renal = test system: ACHN renal
BT-549 breast = test system: BT-549 breast
COLO 205 colon = test system: COLO 205 colon
EKVX NSCLC = test system: EKVX NSCLC
M14 melanoma = test system: M14 melanoma
MDA-N = test system: MDA-N
NCI-H460 lung = test system: NCI-H460 lung
OVCAR-8 ovarian = test system: OVCAR-8 ovarian
PC-3 prostate = test system: PC-3 prostate
SN12C renal = test system: SN12C renal
T-47D breast = test system: T-47D breast
UACC-62 melanoma = test system: UACC-62 melanoma
UO-31 renal = test system: UO-31 renal
NCI-H522 lung = test system: NCI-H522 lung
SK-OV-3 ovarian = test system: SK-OV-3 ovarian

| Structure (SMILES) | TGI (786-0 renal) | TGI (ACHN renal) | TGI (BT-549 breast) | TGI (COLO 205 colon) | TGI (EKVX NSCLC) | TGI (M14 melanoma) | TGI (MDA-N) | TGI (NCI-H460 lung) | TGI (OVCAR-8 ovarian) | TGI (PC-3 prostate) | TGI (SN12C renal) | TGI (T-47D breast) | TGI (UACC-62 melanoma) | TGI (UO-31 renal) | TGI (NCI-H522 lung) | TGI (SK-OV-3 ovarian) |
| --- | --- | --- | --- | --- | --- | --- | --- | --- | --- | --- | --- | --- | --- | --- | --- | --- |
| NNc1nncc2n[nH]nc12 | > 100 µM | > 100 µM | > 100 µM | > 100 µM | > 100 µM | > 100 µM | > 100 µM | > 100 µM | > 100 µM | > 100 µM | > 100 µM | > 100 µM | > 100 µM | > 100 µM |  |  |
| COc1cc(O)c2c(c1)OCC(Cc1ccc(O)cc1)C2=O (centres undefined) | > 100 µM | > 100 µM |  | > 100 µM |  | > 100 µM | > 100 µM | > 100 µM | > 100 µM | > 100 µM | > 100 µM | > 100 µM | > 100 µM | > 100 µM | > 100 µM | > 100 µM |
| N#Cc1nc(C2=C(Cl)c3ccccc3OC2)[nH]c1C#N | > 100 µM | > 100 µM | 48 µM |  | > 100 µM | 34.2 µM |  | 75.4 µM | > 100 µM | 71.7 µM | > 100 µM |  | 64.3 µM | 59.9 µM |  | > 100 µM |
| COC(=O)C(=Cc1cc(OC)c(OC)c(OC)c1-c1cc2c(cc1C(C)=O)OCO2)C(=O)OC | 61.6 µM | 100 µM |  | 66.8 µM | > 211 µM |  |  | > 211 µM | > 211 µM |  | 58.8 µM |  | 73.8 µM |  | 62.2 µM | > 211 µM |
| C/C(=C1/CCC/C(=C(/C)c2ccccc2)C1=O)c1ccccc1 | > 100 µM | > 100 µM |  | > 100 µM | > 100 µM | > 100 µM |  | > 100 µM | > 100 µM |  | > 100 µM |  | > 100 µM | > 100 µM | > 100 µM | > 100 µM |
| C=C(CC[C@@H](C)[C@H]1CC[C@@]2(C)C3=C(CC[C@]12C)[C@@]1(C)CC[C@H](O)[C@@H](C)C1CC3)C(C)C (some centres undefined) | 2.07 µM | 2.55 µM | 3.13 µM | 2.41 µM | 2.42 µM | 2.36 µM | 2.33 µM | 2.09 µM | 3.53 µM | 2.28 µM | 2.72 µM |  | 2.61 µM | 2.35 µM |  | 2.79 µM |
| c1csc(-c2cc(-c3cccs3)c(-c3ccsc3)s2)c1 | > 100 µM | > 100 µM |  | > 100 µM | > 100 µM | > 100 µM | > 100 µM | > 100 µM | > 100 µM | > 100 µM | > 100 µM | > 100 µM | > 100 µM | > 100 µM |  | > 100 µM |
| NC(N)=N/N=C/c1c(-c2cccc([N+](=O)[O-])c2)nc2n1CCS2 | > 100 µM | 44.2 µM | 32.2 µM | 60.6 µM | 54.5 µM | 60 µM |  | 53.5 µM | 39.3 µM | 44.5 µM | 58.5 µM | 26.1 µM | 39 µM | 30.6 µM | 32.2 µM |  |
